Molecules are shown by their SMILES.

From patent US8183387B2, “Phenylpyrazole derivatives” (Taisho Pharmaceutical Co., Ltd, priority 2007, dated 2012) come the findings set out here.

T1 sequence (Q99720 whole entry): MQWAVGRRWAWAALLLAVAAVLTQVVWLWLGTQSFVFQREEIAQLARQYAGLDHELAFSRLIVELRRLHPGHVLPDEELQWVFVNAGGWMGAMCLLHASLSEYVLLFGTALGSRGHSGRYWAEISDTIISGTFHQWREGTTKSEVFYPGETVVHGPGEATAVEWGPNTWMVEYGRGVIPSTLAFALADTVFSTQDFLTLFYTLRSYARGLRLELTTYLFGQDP

One assay addresses T1, σ1 receptor (Homo sapiens, UniProt Q99720).
T1 construct: host or cells: Jurkat cells (membrane)
In words: [3H](+)pentazocine binding test. As to conditions: [3H](+)pentazocine 8 nM, Jurkat cell membrane. How it is done: Affinity for σ1 receptor was evaluated in a [^3H](+)pentazocine binding test by Cerep, Inc. The σ1 receptor preparation used was the membrane of Jurkat cells. The Jurkat cell membrane was incubated with [^3H](+)pentazocine (8 nM) at 22° C. for 120 minutes.
Usually inhibition stands for the drop in the measured response relative to a control, in per cent. Take `C[C@@H]1CCCN1CCCOc1ccc(-n2cc(C(=O)N3CCN(C)CC3)cn2)cc1` [Example 55, (4-methylpiperazin-1-yl)[1-(4-{3-[(2R)-2-methylpyrrolidin-1-yl]propoxy}phenyl)-1H-pyrazol-4-yl]methanone]: the inhibition at 10 µM was 3%.

As for `C[C@@H]1CCCN1CCCOc1ccc(-n2cc(C(=O)N3CCCOCC3)cn2)cc1` [Example 54, [1-(4-{3-[(2R)-2-methylpyrrolidin-1-yl]propoxy}phenyl)-1H-pyrazol-4-yl](1,4-oxazepan-4-yl)methanone], at 10 µM the inhibition was 39%.

The target of a further assay is human H3 receptor (Homo sapiens, UniProt Q9Y5N1). In words: H3 receptor binding test (R(−)-α-methyl[3H]histamine). The arrangement: purchased Euroscreen ES-392-M; host or cells: CHO-K1. Conditions: inhibition of R(−)-α-methyl[3H]histamine (2 nM) binding, membrane of human H3 receptor-expressing CHO-K1 cells. How it is done: A membrane preparation of human H3 receptor-expressing CHO-K1 cells (Euroscreen, ES-392-M, 15 μg protein/200 μl), R(−)-α-methyl[^3H]histamine (Amersham, TRK-1017, specific activity: 1.74 TBq/mmol, 2 nM) and a test drug were reacted at room temperature for 1 hour. After completion of the reaction, the reaction mixture was subjected to suction filtration through a 0.3% polyethyleneimine-treated glass filter (GF/C). The glass filter was washed five times with 50 mM Tris-HCl washing solution (pH 7.4) containing 5 mM EDTA. After washing, the glass filter was dried and a scintillator was added thereto, followed by measurement of radioactivity on the filter using a liquid scintillation counter.
human H3 receptor, sequence (Q9Y5N1 whole entry): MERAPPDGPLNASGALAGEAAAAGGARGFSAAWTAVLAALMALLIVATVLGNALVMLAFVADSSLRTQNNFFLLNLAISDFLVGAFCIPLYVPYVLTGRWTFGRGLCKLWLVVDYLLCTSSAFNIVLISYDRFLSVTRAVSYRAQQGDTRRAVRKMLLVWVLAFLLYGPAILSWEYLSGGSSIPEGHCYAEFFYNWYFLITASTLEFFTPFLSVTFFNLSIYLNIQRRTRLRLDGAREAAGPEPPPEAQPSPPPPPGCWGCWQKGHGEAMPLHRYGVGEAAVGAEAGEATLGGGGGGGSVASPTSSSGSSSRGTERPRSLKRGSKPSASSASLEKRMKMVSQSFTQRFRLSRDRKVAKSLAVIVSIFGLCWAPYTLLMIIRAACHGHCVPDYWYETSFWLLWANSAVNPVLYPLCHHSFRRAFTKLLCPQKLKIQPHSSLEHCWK
A fixed concentration (2 nM) of R(−)-α-methyl[^3H]histamine was reacted under the above conditions with each test drug at various concentrations to obtain an inhibition curve.
What is called IC50 is the concentration needed to halve the response being measured. Regarding `C[C@@H]1CCCN1CCCOc1ccc(-n2cc(C(=O)N3CCN(C)CC3)cn2)cc1` [Example 55, (4-methylpiperazin-1-yl)[1-(4-{3-[(2R)-2-methylpyrrolidin-1-yl]propoxy}phenyl)-1H-pyrazol-4-yl]methanone], the half-maximal inhibitory concentration (IC50) came out at 5.2 nM. As to `C[C@H]1CCCN1CCCOc1ccc(-n2cc(N3CCCC3=O)cn2)cc1` [Example 31, 1-[1-(4-{3-[(2S)-2-methylpyrrolidin-1-yl]propoxy}phenyl)-1H-pyrazol-4-yl]pyrrolidine-2-one], the IC50 was found to be 5.1 nM. Still for that read-out and setting: under `C[C@@H]1CCCN1CCOc1ccc(-n2cc(C(=O)N3CCOCC3)cn2)cc1` [Example 60, [1-(4-{2-[(2R)-2-methylpyrrolidin-1-yl]ethoxy}phenyl)-1H-pyrazol-4-yl](morpholin-4-yl)methanone] stands 1560 nM. Still for that read-out and setting: in the case of `CC(C)(C)NC(=O)c1cnn(-c2ccc(OCCCN3CCCC3)cc2)c1` [Example 13, N-tert-butyl-1-[4-(3-pyrrolidin-1-ylpropoxy)phenyl]-1H-pyrazole-4-carboxamide] it was 6.1 nM; in that of `C[C@@H]1CCCN1CCCOc1ccc(-n2cc(NC(=O)c3cccnc3)cn2)cc1` [Example 43, N-[1-(4-{3-[(2R)-2-methylpyrrolidin-1-yl]propoxy}phenyl)-1H-pyrazol-4-yl]pyridine-3-carboxamide], 1 nM; in that of `C[C@@H]1CCCN1CCCOc1ccc(-n2cc(C(=O)N(CCO)CC(=O)O)cn2)cc1` [Example 68, N-(2-hydroxyethyl)-N-{[1-(4-{3-[(2R)-2-methylpyrrolidin-1-yl]propoxy}phenyl)-1H-pyrazol-4-yl]carbonyl}glycine], 74.8 nM. Still for that read-out and setting: in the case of `C[C@@H]1CCCN1CCCOc1ccc(-n2cc(NC(=O)c3ccc(O)cc3)cn2)cc1` [Example 42, 4-hydroxy-N-[1-(4-{3-[(2R)-2-methylpyrrolidin-1-yl]propoxy}phenyl)-1H-pyrazol-4-yl]benzamide] it was 1.7 nM. `CC1CCCN1CCCOc1ccc(-n2cc(C(=O)Nc3ccc(F)cc3)cn2)cc1` (stereo not shown) [Example 15, N-(4-fluorophenyl)-1-{4-[3-(2-methylpyrrolidin-1-yl)propoxy]phenyl}-1H-pyrazole-4-carboxamide]: the IC50 was 1.8 nM. With `C[C@@H]1CCCN1CCCOc1ccc(-n2cc(C#N)cn2)cc1` [Example 3, 1-(4-{3-[(2R)-2-methylpyrrolidin-1-yl]propoxy}phenyl)-1H-pyrazole-4-carbonitrile], the IC50 worked out at 4.6 nM. On to `C[C@@H]1CCCN1CCCOc1ccc(-n2cc(NS(=O)(=O)c3cccnc3)cn2)cc1` [Example 51, N-[1-(4-{3-[(2R)-2-methylpyrrolidin-1-yl]propoxy}phenyl)-1H-pyrazol-4-yl]pyridine-3-sulfonamide], for which the IC50 came to 13.7 nM. For the compound `CC1CCCN1CCCOc1ccc(-n2cc(C(=O)NC(C)(C)C)cn2)cc1` (stereo not shown) [Example 11, N-tert-butyl-1-{4-[3-(2-methylpyrrolidin-1-yl)propoxy]phenyl}-1H-pyrazole-4-carboxamide], the IC50 came out at 1.8 nM.

On to `CCN(CC)CCCOc1ccc(-n2cc(C(=O)NC(C)(C)C)cn2)cc1` [Example 14, N-tert-butyl-1-{4-[3-(diethylamino)propoxy]phenyl}-1H-pyrazole-4-carboxamide], for which the IC50 was found to be 13.5 nM. Turning to `C[C@H]1CCCN1CCCOc1ccc(-n2cc(C#N)cn2)cc1` [Example 5, 1-(4-{3-[(2S)-2-methylpyrrolidin-1-yl]propoxy}phenyl)-1H-pyrazole-4-carbonitrile], the IC50 was 10.8 nM.

For the compound `C[C@@H]1CCCN1CCCOc1ccc(-n2cc([N+](=O)[O-])cn2)cc1` [Example 28, 1-(4-{3-[(2R)-2-methylpyrrolidin-1-yl]propoxy}phenyl)-4-nitro-1H-pyrazole], the IC50 came to 3.1 nM.

`CC1CCCN1CCCOc1ccc(-n2cc(N3CCCCC3=O)cn2)cc1` (stereo not shown) [Example 36, 1-(1-{4-[3-(2-methylpyrrolidin-1-yl)propoxy]phenyl}-1H-pyrazol-4-yl)piperidin-2-one]: the IC50 was found to be 4 nM.

For `C[C@@H]1CN(C(=O)c2cnn(-c3ccc(OCCCN4CCC[C@H]4C)cc3)c2)C[C@H](C)O1` [Example 53, (2,6-dimethylmorpholin-4-yl)[1-(4-{3-[(2R)-2-methylpyrrolidin-1-yl]propoxy}phenyl)-1H-pyrazol-4-yl]methanone], the IC50 worked out at 6.1 nM. On to `C[C@@H]1CCCN1CCCOc1ccc(-n2cc(NC(=O)Cc3ccc(O)cc3)cn2)cc1` [Example 45, 2-(4-hydroxyphenyl)-N-[1-(4-{3-[(2R)-2-methylpyrrolidin-1-yl]propoxy}phenyl)-1H-pyrazol-4-yl]acetamide], for which the IC50 came out at 1.1 nM. Consider `CC1CCCN1CCCOc1ccc(-n2cc(NS(=O)(=O)c3ccc(C#N)cc3)cn2)cc1` (stereo not shown) [Example 50, 4-cyano-N-(1-{4-[3-(2-methylpyrrolidin-1-yl)propoxy]phenyl}-1H-pyrazol-4-yl)benzenesulfonamide], for which the IC50 turned out to be 31.9 nM. On to `CC1CCCN1CCCOc1ccc(-n2cc(N3CCOC3=O)cn2)cc1` (stereo not shown) [Example 34, 3-(1-{4-[3-(2-methylpyrrolidin-1-yl)propoxy]phenyl}-1H-pyrazol-4-yl)-1,3-oxazolidin-2-one], for which the IC50 amounted to 2.1 nM. Regarding `Cc1cc(OCCCN2CCC[C@H]2C)ccc1-n1cc(C(=O)N2CCOCC2)cn1` [Example 63, [1-(2-methyl-4-{3-[(2R)-2-methylpyrrolidin-1-yl]propoxy}phenyl)-1H-pyrazol-4-yl](morpholin-4-yl)methanone], the IC50 turned out to be 20.7 nM. Turning to `C[C@@H]1CCCN1CCCOc1ccc(-n2cc(C(=O)N3CCC(F)(F)C3)cn2)cc1` [Example 22, 4-[(3,3-difluoropyrrolidin-1-yl)carbonyl]-1-(4-{3-[(2R)-2-methylpyrrolidin-1-yl]propoxy}phenyl)-1H-pyrazole], the IC50 is 2.7 nM. For the compound `C[C@@H]1CCCN1CCCOc1ccc(-n2cc(NC(=O)Cc3ccncc3)cn2)cc1` [Example 47, N-[1-(4-{3-[(2R)-2-methylpyrrolidin-1-yl]propoxy}phenyl)-1H-pyrazol-4-yl]-2-(pyridin-4-yl)acetamide], the IC50 came out at 1.5 nM. On the same count and under the same terms, in the case of `O=C(Nc1ccc(F)cc1)c1cnn(-c2ccc(OCCCN3CCCC3)cc2)c1` [Example 16, N-(4-fluorophenyl)-1-[4-(3-pyrrolidin-1-ylpropoxy)phenyl]-1H-pyrazole-4-carboxamide] it was 5.9 nM.

As for `CC1CCCN1CCCOc1ccc(-n2cc(C(=O)c3ccccn3)cn2)cc1` (stereo not shown) [Example 25, (1-{4-[3-(2-methylpyrrolidin-1-yl)propoxy]phenyl}-1H-pyrazol-4-yl)(pyridin-2-yl)methanone], the IC50 was 3.5 nM. For the compound `CCN(C(C)=O)c1cnn(-c2ccc(OCCCN3CCCC3C)cc2)c1` (stereo not shown) [Example 39, N-ethyl-N-(1-{4-[3-(2-methylpyrrolidin-1-yl)propoxy]phenyl}-1H-pyrazol-4-yl)acetamide], the IC50 was found to be 3.5 nM. With `C[C@H]1CCCN1CCCOc1ccc(-n2cc(C(N)=O)cn2)cc1` [Example 4, 1-(4-{3-[(2S)-2-methylpyrrolidin-1-yl]propoxy}phenyl)-1H-pyrazole-4-carboxamide], the IC50 came out at 33 nM. The same measure, in the same setting: in the case of `O=C(c1cnn(-c2ccc(OCCCN3CCCC3)cc2)c1)N1CCOCC1` [Example 8, 4-({1-[4-(3-pyrrolidin-1-ylpropoxy)phenyl]-1H-pyrazol-4-yl}carbonyl)morpholine] it was 24.2 nM. Still for that read-out and setting: in the case of `CC1CCCN1CCCOc1ccc(-n2cc(C(=O)N(C)C)cn2)cc1` (stereo not shown) [Example 19, 1-{4-[3-(2-methylpyrrolidin-1-yl)-propoxy]-phenyl}-1H-pyrazole-4-carboxylic acid dimethylamide] it was 5.1 nM; in that of `C[C@@H]1CCCN1CCCOc1ccc(-n2cc(C(=O)N3CCCOCC3)cn2)cc1` [Example 54, [1-(4-{3-[(2R)-2-methylpyrrolidin-1-yl]propoxy}phenyl)-1H-pyrazol-4-yl](1,4-oxazepan-4-yl)methanone], 4.1 nM; in that of `Cc1ccc(NC(=O)c2cnn(-c3ccc(OCCCN4CCCC4C)cc3)c2)cc1` (stereo not shown) [Example 17, N-(4-methylphenyl)-1-{4-[3-(2-methylpyrrolidin-1-yl)propoxy]phenyl}-1H-pyrazole-4-carboxamide], 3.9 nM.

On to `C[C@@H]1CCCN1CCCOc1ccc(-n2cc(NC(=O)c3ccncc3)cn2)cc1` [Example 44, N-[1-(4-{3-[(2R)-2-methylpyrrolidin-1-yl]propoxy}phenyl)-1H-pyrazol-4-yl]pyridine-4-carboxamide], for which the IC50 stood at 0.8 nM. For `C[C@@H]1CCCN1CCCOc1ccc(-n2cc(C(=O)NCCOCCO)cn2)cc1` [Example 69, N-[2-(2-hydroxyethoxy)ethyl]-1-{4-[3-(2-methylpyrrolidin-1-yl)propoxy]phenyl}-1H-pyrazole-4-carboxamide], the IC50 worked out at 4.6 nM.
